Measurements published in patent US8217073B2, “Pyrrole derivatives as therapeutic compounds” (Myrexis, Inc., priority 2005, dated 2012).
“And” between values parts separate entries of the source, which are not always exact repeats. Equal entries are not always repeated.

Key:
Aβ40 secretion = Aβ40 secretion by H4 cells expressing APP695, sandwich ELISA; type: cell-based, human; details: medium collected at 24 or 48 hours, several numbers = independent sets of assays; for IC50: about 1 μM to about 100 μM; for inhibition at 100 µM / % Inhibition of Aβ40 Secretion @ 100 μM: test compound 100 μM vs DMSO control
Method: (§1) The present invention provides compositions and methods for lowering Aβ42 levels. To test whether compounds and compositions are capable of modulating Aβ levels in cultured cells, sandwich enzyme-linked immunosorbent assays (ELISAs) are employed to measure secreted Aβ (Aβ42 and/or Aβ40 levels). In this example, H4 cells expressing wide type APP695 are seeded at 200,000 cells per well in 6 well plates, and incubated at 37° C. with 5% CO2 overnight. Cells are treated with 1.5 ml medium containing vehicle (DMSO) or a test compound at 1.25 μM, 2.5 μM, 5.0 μM and 10.0 μM (as well as other concentration if desirable) for 24 hours or 48 hours. The supernatant from treated cells is collected into eppendorf tubes and frozen at −80° C. for future analysis.
(§2) The amyloid peptide standard is reconstituted and frozen samples are thawed. The samples and standards are diluted with appropriate diluents and the plate is washed 4 times with Working Wash Buffer and patted dry on a paper towel. 100 μL per well of peptide standards, controls, and dilutions of samples to be analyzed is added. The plate is incubated for 2 hours while shaking on an orbital plate shaker at RT. The plate is then washed 4 times with Working Wash Buffer and patted dry on a paper towel. Detection Antibody Solution is poured into a reservoir and 100 μL/well of Detection Antibody Solution is immediately added to the plate. The plate is incubated at RT for 2 hours while shaking and then washed four times with Working Wash Buffer and patted dry on a paper towel. Secondary Antibody Solution is then poured into a reservoir and 100 μL/well of Secondary Antibody Solution is immediately added to the plate. The plate is incubated at RT for 2 hours with shaking, washed 5 times with Working Wash Buffer, and patted dry on a paper towel.
(§3) 100 μL of stabilized chromogen is added to each well and the liquid in the wells begins to turn blue. The plate is incubated for 30 minutes at room temperature and in the dark. 100 μL of stop solution is added to each well and the plate is tapped gently to mix resulting in a change of solution color from blue to yellow. The absorbance of each well is read at 450 nm having blanked the plate reader against a chromogen blank composed of 100 μL each of stabilized chromogen and stop solution. The plate is read within 2 hours of adding the stop solution. The absorbance of the standards is plotted against the standard concentration and the concentrations of unknown samples and controls are calculated.
(§4) The present invention provides compositions and methods for lowering Aβ42 levels. To test whether compounds and compositions are capable of modulating Aβ levels, sandwich enzyme-linked immunosorbent assays (ELISAs) is employed to measure secreted Aβ42 and/or Aβ40 levels. In this example, H4 cells expressing wide type APP695 are seeded at 200,000 cells per well in 6 well plates, and incubated at 37° C. with 5% CO2 overnight. Cells are treated with 1.5 mL medium containing vehicle (DMSO) or a test compound at 1.25 μM, 2.5 μM, 5.0 μM and 10.0 μM concentration for 24 hours or 48 hours. The supernatant from treated cells is collected into eppendorf tubes and frozen at −80° C. for future analysis.
(§5) 130 μL per well of samples, standards, and blanks is added to a 96-well polypropylene plate. […] of samples, standards, and blanks from the polypropylene plate is added to the antibody-coated plates. The strip-holder with the appropriate number of strips is applied to the antibody-coated plates and the strips are covered with an adhesive sealer. The plate is then incubated 3 hours at room temperature while shaking on an orbital plate shaker.
(§6) The first antibody solution is prepared with Conjugate Diluent 1 at 1:100 ratio. Each well of the antibody-coated plates is washed 5 times with 400 μL washing solution and 100 μL of the prepared first antibody solution is added to each well. […]

Aβ42 secretion = Aβ42 secretion by H4 cells expressing APP695, sandwich ELISA; type: cell-based, human; details: medium collected at 24 or 48 hours, several numbers = independent sets of assays; for IC50: about 1 μM to about 100 μM; for inhibition at 100 µM / % Inhibition of Aβ42 Secretion @ 100 μM: test compound 100 μM vs DMSO control
Method: as §1, §2, §3, §4, §5, §6

SMILES	IC50 (Aβ40 secretion; Homo sapiens)	inhibition at 100 µM (Aβ40 secretion; Homo sapiens)	IC50 (Aβ42 secretion; Homo sapiens)	inhibition at 100 µM (Aβ42 secretion; Homo sapiens)	IC50 (Aβ40 secretion)	% Inhibition of Aβ40 Secretion @ 100 μM (Aβ40 secretion)	IC50 (Aβ42 secretion)	% Inhibition of Aβ42 Secretion @ 100 μM (Aβ42 secretion)
Cc1c(-c2cccc(C(F)(F)F)c2)cc(-c2ccccc2)n1-c1cccc(CCC(=O)O)c1 [Compound 9, 3-{3-[2-Methyl-5-phenyl-3-(3-trifluoromethyl-phenyl)-pyrrol-1-yl]-phenyl}-propionic acid]	28 µM	86%	15 µM	82%	–	–	–	–
O=C(O)CCc1cccc(-n2c(CCc3ccccc3)ccc2-c2ccccc2)c1 [Compound 24, 3-[3-(2-Phenethyl-5-phenyl-pyrrol-1-yl)-phenyl]-propionic acid]	100 µM	52%	52 µM	73%	–	–	–	–
Cc1c(-c2ccccc2)cc(-c2ccc(Cl)c(Cl)c2)n1-c1cccc(C(=O)O)c1 [Compound 17, 3-[5-(3,4-Dichloro-phenyl)-2-methyl-3-phenyl-pyrrol-1-yl]-benzoic acid]	> 100 µM	10%	10 µM	83%	–	–	–	–
O=C(O)CCCc1ccc(-n2c(-c3ccccc3)cc(-c3ccccc3)c2C2CC2)cc1 [Compound 35, 4-[4-(2-Cyclopropyl-3,5-diphenyl-pyrrol-1-yl)-phenyl]-butyric acid]	79 µM	–	29 µM	83%	68 µM	73% and 96%	24 µM	93%
CC(C)(C)Cc1c(-c2ccccc2)cc(-c2ccccc2)n1-c1ccc(CCCC(=O)O)cc1 [Compound 38, 4-{4-[2-(2,2-Dimethyl-propyl)-3,5-diphenyl-pyrrol-1-yl]-phenyl}-butyric acid]	63 µM	88%	10 µM	94%	37 µM	104%	7 µM	101%
CCc1c(-c2ccccc2)cc(-c2ccccc2)n1-c1cccc(C(=O)O)c1 [Compound 11, 3-(2-Ethyl-3,5-diphenyl-pyrrol-1-yl)-benzoic acid]	> 100 µM	–	–	92%	69 µM and 68 µM	–	–	94% and 78%
Cc1c(-c2ccccc2)cc(-c2ccccc2)n1-c1cccc(C(=O)O)c1 [Compound 2, 3-(2-Methyl-3,5-diphenyl-pyrrol-1-yl)-benzoic acid]	> 100 µM	36%	48 µM	76%	–	–	–	–
Cc1c(-c2ccccc2)cc(-c2ccc(C(F)(F)F)cc2)n1-c1cccc(CCC(=O)O)c1 [Compound 15, 3-{3-[2-Methyl-3-phenyl-5-(4-trifluoromethyl-phenyl)-pyrrol-1-yl]-phenyl}-propionic acid]	82 µM	63%	21 µM	96%	–	–	–	–
Cc1c(-c2cccc(C(F)(F)F)c2)cc(-c2ccccc2)n1-c1ccc(CCCC(=O)O)cc1 [Compound 10, 4-{4-[2-Methyl-5-phenyl-3-(3-trifluoromethyl-phenyl)-pyrrol-1-yl]-phenyl}-butyric acid]	11 µM	97%	15 µM	79%	–	–	–	–
CCc1c(-c2ccccc2)cc(-c2ccccc2)n1-c1cccc(CCC(=O)O)c1 [Compound 12, 3-[3-(2-Ethyl-3,5-diphenyl-pyrrol-1-yl)-phenyl]-propionic acid]	> 100 µM	27%	34 µM	85%	–	–	–	–
Cc1c(-c2ccccc2)cc(-c2ccc(C(F)(F)F)cc2)n1-c1cccc(C(=O)O)c1 [Compound 14, 3-[2-Methyl-3-phenyl-5-(4-trifluoromethyl-phenyl)-pyrrol-1-yl]-benzoic acid]	–	–	–	96%	–	–	–	101% and 99% and 92%
O=C(O)CCc1cccc(-n2c(-c3ccccc3)cc(-c3ccccc3)c2C2CC2)c1 [Compound 34, 3-[3-(2-Cyclopropyl-3,5-diphenyl-pyrrol-1-yl)-phenyl]-propionic acid]	48 µM	100%	30 µM	95%	–	–	–	–
Cc1c(-c2ccccc2)cc(-c2ccc(C(F)(F)F)cc2)n1-c1ccc(CCCC(=O)O)cc1 [Compound 16, 4-{4-[2-Methyl-3-phenyl-5-(4-trifluoromethyl-phenyl)-pyrrol-1-yl]-phenyl}-butyric acid]	–	78%	5 µM	97%	–	93%	10 µM	102%
O=C(O)c1cccc(-n2c(-c3ccccc3)cc(-c3ccccc3)c2C2CC2)c1 [Compound 33, 3-(2-Cyclopropyl-3,5-diphenyl-pyrrol-1-yl)-benzoic acid]	74 µM	73%	21 µM	89%	79 µM	73, 73%	24 µM	86%
Cc1c(-c2ccccc2)cc(-c2ccc(Cl)c(Cl)c2)n1-c1ccc(CCCC(=O)O)cc1 [Compound 19, 4-{4-[5-(3,4-Dichloro-phenyl)-2-methyl-3-phenyl-pyrrol-1-yl]-phenyl}-butyric acid]	> 100 µM	–	–	95%	65 µM	42% and 78%	–	109%
Cc1c(-c2ccccc2)cc(-c2ccccc2)n1-c1ccc(CCCC(=O)O)cc1 [Compound 1, 4-[4-(2-Methyl-3,5-diphenyl-pyrrol-1-yl)-phenyl]-butyric acid]	> 100 µM	–	–	–	67 µM	–	–	101% and 99% and 78%
CC(C)c1c(-c2ccccc2)cc(-c2ccccc2)n1-c1ccc(CCCC(=O)O)cc1 [Compound 32, 4-[4-(2-Isopropyl-3,5-diphenyl-pyrrol-1-yl)-phenyl]-butyric acid]	41 µM	103%	22 µM	98%	–	–	–	–
CCOC(=O)c1cc(CCc2ccccc2)n(-c2cccc(CCC(=O)O)c2)c1-c1ccccc1 [Compound 21, 1-[3-(2-Carboxy-ethyl)-phenyl]-5-phenethyl-2-phenyl-1H-pyrrole-3-carboxylic acid ethyl ester]	> 100 µM	38%	55 µM	66%	–	–	–	–
Cc1c(-c2ccccc2)cc(-c2ccccc2)n1-c1ccc(C(=O)O)cc1 [Compound 39, 4-(2-Methyl-3,5-diphenyl-pyrrol-1-yl)-benzoic acid]	54 µM	92%	50 µM	86%	–	–	–	–
O=C(O)c1cccc(-n2cc(-c3ccccc3)cc2-c2ccccc2)c1 [Compound 6, 3-(2,4-Diphenyl-pyrrol-1-yl)-benzoic acid]	> 100 µM	32%	30 µM	74%	–	–	–	–
CC(C)(C)Cc1c(-c2ccccc2)cc(-c2ccccc2)n1-c1cccc(CCC(=O)O)c1 [Compound 37, 3-{3-[2-(2,2-Dimethyl-propyl)-3,5-diphenyl-pyrrol-1-yl]-phenyl}-propionic acid]	30 µM	98%	9 µM	100%	32 µM	104%	7 µM	99%
